Measurements published in patent US11458225B2, “3D vascularized human ocular tissue for cell therapy and drug discovery” (THE UNITED STATES OF AMERICA, as represented by the …, priority 2016, dated 2022).
“Also recorded” adds a separate entry of the source.

Columns and labels:
[1] = system: 3D vascularized tissue containing GFP positive primary endothelial cells, pericytes, and fibroblasts; details: a week of VEGF treatment (85 ng/ml) vs 3 days then basal 1.7 ng/ml
Description: (A) 8 bit images of printed GFP endothelial cells (white) were quantified. Five line probes were placed in each gap between stripes of the printed geometry. Each line probe detects peaks (hollow circles) of GFP intensity above a threshold. Line 1 and 6, 2 and 5, 3 and 4 indicate edge, intermediate, and center of each gap, respectively. (B) Two experimental groups are compared. […] Angiogenesis was quantified as a number of GFP peaks in each line probe. The quantification of angiogenesis was performed between groups and time frames of G (n=5; number of printings). Error bars indicates standard error and mean. Two-way ANOVA and Bonferroni post-hoc pair comparison. † indicates statistical significance (p<0.05) between groups (left figure) and day 5-6 and day 7-8 (right figure). # and * indicates statistical significance (p<0.05) in day 3-4 vs. day 5-6 and day 3-4 vs. day 7-8, respectively.

RPE-“choroid” tissues = test: Hypoxia disease model: DMOG treatment of bioprinted RPE-"choroid" tissue, confocal imaging; type: cell-based, human; details: two weeks of treatment
Method: FIGS. 18A-18I are digital images showing the effect of hypoxia on “choriocapillaris.” RPE-“choroid” tissues were treated with DMOG (100 μM) after 4 weeks from printing. DMOG inhibits prolyl-4-hydroxylase and induces hypoxia-inducible factor. DMOG was treated on only apical region of RPE or on both apical region of RPE and “choroid” sides. After two weeks of DMOG treatment, tissues were fixed in 4% PFA. Z-stack confocal images were separated into three sections as RPE (A-C), subRPE/scaffold (D-F), and “choroid” (G-I). RPE was recognized by Hoescht (nuclei). Choroid was stained with CD31. Scale bar=100 μm.
It was tested if hypoxic condition of RPE or RPE-“choroid” plays a role in “choroidal” neovascularization. Hypoxia has been reported as a crucial factor to induce wet AMD. A chemical compound, DMOG, was used to induce hypoxia-inducible factor in RPE or every cell type within the tissue.

Compound	growth and viability of microvascular network [1]	vascularization in sub-RPE region (CD31 stain) (RPE-“choroid” tissues; DMOG 100 μM from 4 weeks after printing, on apical region of RPE only or on both RPE and “choroid” sides)	changes of the RPE monolayer (RPE-“choroid” tissues; DMOG 100 μM, RPE recognized by Hoescht)
VEGF	significantly enhanced growth and viability of microvascular network	–	–
COC(=O)CNC(=O)C(=O)OC [DMOG]	–	significantly induced vascularization in sub-RPE region; also recorded: induced vascularization in the subRPE region	did not show noticeable changes
